Measured values from US11046716B2, “Beta-lactamase inhibitors” (priority 2015, dated 2021).

Tests used:
KPC-2 = molecular target: T1, KPC-2 (Klebsiella pneumoniae, UniProt Q9F663); experiment: β-lactamase enzyme inhibition assay, KPC-2 (imipenem substrate); type: biochemical; conditions: Class A; imipenem substrate, 300 nm; read-out: KPC-2
T1 construct: made in house; host or cells: E. coli BL21(DE3)
Method in brief: (§1)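 Untagged enzyme from E. coli BL21(DE3), purified by Capto S then Superdex 75; 15 min 37 °C preincubation with inhibitor; KPC-2 read with imipenem at 300 nm, SHV-5 with cefotaxime at 260 nm, OXA-1 with nitrocefin 100 μM final at 486 nm; 10 min kinetic read; IC50 vs uninhibited wells.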

[1] = test system: K. pneumoniae producing the Class D carbapenemase OXA-48; experiment: Broth microdilution MIC assay with meropenem, K. pneumoniae OXA-48; type: cell-based; conditions: Fixed Mero (meropenem) 4 μg/mL; K. p. 11978 OXA-48
Method in brief: (§2)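 CAMHB; cpd 2-fold serial dilution, 16–0.125 μg/mL final; β-lactam static 4 μg/ml; CLSI inoculation; 16–20 h, 37° C; MIC read by eye.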

OXA-48 = OXA-48 (UniProt Q6XEC0); experiment: β-lactamase enzyme inhibition assay, Class D oxacillinase; type: biochemical; conditions: read-out: OXA-48
AmpC = molecular target: T2, AmpC (Enterobacter cloacae, UniProt P05364); experiment: β-lactamase enzyme inhibition assay, p99 AmpC (nitrocefin substrate); type: biochemical
T2 construct: made in house; host or cells: E. coli BL21(DE3)
Method in brief: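 Untagged enzyme from E. coli BL21(DE3), purified by Capto S then Superdex 75; 15 min 37 °C preincubation with inhibitor; 10 min kinetic read; IC50 vs uninhibited wells.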

[2] = test system: P. aeruginosa expressing the Class B carbapenemase VIM-2; experiment: Broth microdilution MIC assay with meropenem, P. aeruginosa VIM-2; type: cell-based; conditions: Fixed Mero (meropenem) 4 μg/mL; P. aerug. 2775 VIM-2
Method in brief: as §2

[3] = test system: K. pneumoniae expressing the Class A carbapenemase KPC-2; experiment: Broth microdilution MIC assay with meropenem, K. pneumoniae KPC-2; type: cell-based; conditions: Fixed Mero (meropenem) 4 μg/mL; K. p. 156319 KPC-3
Method in brief: as §2

[4] = test system: E. coli expressing the Class A Extended Spectrum Beta-Lactamase (ESBL) CTX-M-15; experiment: Broth microdilution MIC assay with ceftazidime, E. coli CTX-M-15; type: cell-based; conditions: Fixed CAZ (ceftazidime) 4 μg/mL; E. coli ESBL4 CTX-M-15
Method in brief: as §2

[5] = test system: K. pneumoniae expressing the class A carbapenemase KPC-2 and the class B carbapenemase VIM-4; experiment: Broth microdilution MIC assay with meropenem, K. pneumoniae KPC-2 and VIM-4; type: cell-based; conditions: Fixed Mero (meropenem) 4 μg/mL; K. p. A-1797 KPC-2 VIM-4
Method in brief: as §2

VIM-2 = molecular target: T3, VIM-2 (Escherichia coli, UniProt Q5U7L7); experiment: β-lactamase enzyme inhibition assay, VIM-2 (nitrocefin substrate); type: biochemical; conditions: Class B; nitrocefin substrate, 486 nm; read-out: VIM-2
T3 construct: made in house; host or cells: E. coli BL21(DE3)
Method in brief: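 Enzyme + inhibitor, 37 °C, 15 min; nitrocefin 100 μM final; A486 read for 10 min. % inhibition vs no-inhibitor wells per concentration; IC50 = concentration halving initial hydrolysis rate.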

SHV-5 = molecular target: T4, SHV-5 (Klebsiella pneumoniae, UniProt P0A3M1); experiment: β-lactamase enzyme inhibition assay, SHV-5 (cefotaxime substrate); type: biochemical
T4 construct: made in house; host or cells: E. coli BL21(DE3)
Method in brief: as §1

[6] = test system: E. cloacae expressing the Class C P99; experiment: Broth microdilution MIC assay with ceftazidime, E. cloacae P99; type: cell-based; conditions: Fixed CAZ (ceftazidime) 4 μg/mL; E. cl. 144200 p99 AmpC
Method in brief: as §2

T1 sequence (Q9F663 25-293, looked up): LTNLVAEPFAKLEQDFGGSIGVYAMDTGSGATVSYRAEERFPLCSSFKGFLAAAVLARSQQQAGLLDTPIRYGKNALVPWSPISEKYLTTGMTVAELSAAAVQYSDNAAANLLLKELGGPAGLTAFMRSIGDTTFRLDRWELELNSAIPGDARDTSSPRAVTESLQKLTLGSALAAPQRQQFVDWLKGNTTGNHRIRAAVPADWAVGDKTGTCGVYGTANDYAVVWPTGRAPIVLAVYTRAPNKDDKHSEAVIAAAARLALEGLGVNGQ
T4 sequence (P0A3M1 22-286): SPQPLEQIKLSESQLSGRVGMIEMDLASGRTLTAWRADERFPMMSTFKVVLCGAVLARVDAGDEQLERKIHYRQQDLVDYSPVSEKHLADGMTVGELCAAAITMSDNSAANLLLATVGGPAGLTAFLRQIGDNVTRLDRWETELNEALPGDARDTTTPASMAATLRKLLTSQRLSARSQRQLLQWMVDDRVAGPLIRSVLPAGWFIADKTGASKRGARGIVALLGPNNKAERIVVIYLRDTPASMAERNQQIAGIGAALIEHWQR
T2 sequence (P05364 21-381): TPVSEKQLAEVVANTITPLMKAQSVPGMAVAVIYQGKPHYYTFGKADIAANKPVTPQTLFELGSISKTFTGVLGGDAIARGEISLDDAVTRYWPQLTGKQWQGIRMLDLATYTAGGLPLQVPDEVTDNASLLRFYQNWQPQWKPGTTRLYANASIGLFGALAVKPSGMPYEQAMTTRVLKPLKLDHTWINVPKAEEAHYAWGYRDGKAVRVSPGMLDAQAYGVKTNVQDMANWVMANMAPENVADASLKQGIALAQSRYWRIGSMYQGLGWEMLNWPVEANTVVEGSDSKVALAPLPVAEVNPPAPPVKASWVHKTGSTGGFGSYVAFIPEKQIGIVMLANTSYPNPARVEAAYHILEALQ

SMILES	IC50 (KPC-2) [µM]	MIC (μg/mL) of Exemplary Compounds in presence of fixed β-lactams: K. p. 11978 OXA-48 [1]	IC50 (OXA-48) [µM]	IC50 (AmpC) [µM]	MIC (μg/mL) of Exemplary Compounds in presence of fixed β-lactams: P. aerug. 2775 VIM-2 [2]	MIC (μg/mL) of Exemplary Compounds in presence of fixed β-lactams: K. p. 156319 KPC-3 [3]	MIC (μg/mL) of Exemplary Compounds in presence of fixed β-lactams: E. coli ESBL4 CTX-M-15 [4]	MIC (μg/mL) of Exemplary Compounds in presence of fixed β-lactams: K. p. A-1797 KPC-2 VIM-4 [5]	IC50 (VIM-2) [µM]	IC50 (SHV-5) [µM]	MIC (μg/mL) of Exemplary Compounds in presence of fixed β-lactams: E. cl. 144200 p99 AmpC [6]
CNC(=O)c1cn(CC(=O)N[C@H]2Cc3cccc(C(=O)O)c3OB2O)nn1 [Example 79, (R)-2-hydroxy-3-(2-(4-(methylcarbamoyl)-1H-1,2,3-triazol-1-yl)acetamido)-3,4-dihydro-2H-benzo[e][1,2]oxaborinine-8-carboxylic acid]	< 0.1	C (C represents an MIC of <1 μg/mL)	0.1 to 1	< 0.1	C (C represents an MIC of <1 μg/mL)	C (C represents an MIC of <1 μg/mL)	C (C represents an MIC of <1 μg/mL)	B (B represents an MIC between 1 and 16 μg/mL inclusive)	0.1 to 1	< 0.1	C (C represents an MIC of <1 μg/mL)
NCCc1nnnn1CC(=O)N[C@H]1Cc2cccc(C(=O)O)c2OB1O [Example 102, (R)-3-(2-(5-(2-aminoethyl)-1H-tetrazol-1-yl)acetamido)-2-hydroxy-3,4-dihydro-2H-benzo[e][1,2]oxaborinine-8-carboxylic acid]	< 0.1	B (B represents an MIC between 1 and 16 μg/mL inclusive)	0.1 to 1	< 0.1	C (C represents an MIC of <1 μg/mL)	B (B represents an MIC between 1 and 16 μg/mL inclusive)	C (C represents an MIC of <1 μg/mL)	B (B represents an MIC between 1 and 16 μg/mL inclusive)	< 0.1	0.1 to 1	C (C represents an MIC of <1 μg/mL)
Nc1n[nH]c2ncc(-c3cn(CC(=O)N[C@H]4Cc5cccc(C(=O)O)c5OB4O)nn3)cc12 [Example 36]	< 0.1	B (B represents an MIC between 1 and 16 μg/mL inclusive)	0.1 to 1	< 0.1	B (B represents an MIC between 1 and 16 μg/mL inclusive)	B (B represents an MIC between 1 and 16 μg/mL inclusive)	C (C represents an MIC of <1 μg/mL)	A (A represents an MIC>16 μg/mL)	1 to 10	< 0.1	C (C represents an MIC of <1 μg/mL)
NCc1cn(CCC(=O)N[C@H]2Cc3cccc(C(=O)O)c3OB2O)nn1 [Example 30, (R)-3-(3-(4-(aminomethyl)-1H-1,2,3-triazol-1-yl)propanamido)-2-hydroxy-3,4-dihydro-2H-benzo[e][1,2]oxaborinine-8-carboxylic acid]	< 0.1	B (B represents an MIC between 1 and 16 μg/mL inclusive)	0.1 to 1	< 0.1	B (B represents an MIC between 1 and 16 μg/mL inclusive)	C (C represents an MIC of <1 μg/mL)	C (C represents an MIC of <1 μg/mL)	B (B represents an MIC between 1 and 16 μg/mL inclusive)	0.1 to 1	< 0.1	C (C represents an MIC of <1 μg/mL)
Nc1ccc(S(=O)(=O)NCc2cn(CC(=O)N[C@H]3Cc4cccc(C(=O)O)c4OB3O)nn2)cc1 [Example 70, (R)-3-(2-(4-(((4-aminophenyl)sulfonamido)methyl)-1H-1,2,3-triazol-1-yl)acetamido)-2-hydroxy-3,4-dihydro-2H-benzo[e][1,2]oxaborinine-8-carboxylic acid]	< 0.1	B (B represents an MIC between 1 and 16 μg/mL inclusive)	0.1 to 1	< 0.1	B (B represents an MIC between 1 and 16 μg/mL inclusive)	B (B represents an MIC between 1 and 16 μg/mL inclusive)	C (C represents an MIC of <1 μg/mL)	B (B represents an MIC between 1 and 16 μg/mL inclusive)	1 to 10	< 0.1	C (C represents an MIC of <1 μg/mL)
NCCCC[C@@H](C(=O)N[C@H]1Cc2cccc(C(=O)O)c2OB1O)n1cc(CN)nn1 [Example 113, (R)-3-((S)-6-amino-2-(4-(aminomethyl)-1H-1,2,3-triazol-1-yl)hexanamido)-2-hydroxy-3,4-dihydro-2H-benzo[e][1,2]oxaborinine-8-carboxylic acid]	0.1 to 1	A (A represents an MIC>16 μg/mL)	0.1 to 1	< 0.1	C (C represents an MIC of <1 μg/mL)	B (B represents an MIC between 1 and 16 μg/mL inclusive)	C (C represents an MIC of <1 μg/mL)	C (C represents an MIC of <1 μg/mL)	< 0.1	1 to 10	C (C represents an MIC of <1 μg/mL)
Nc1cnn(CC(=O)N[C@H]2Cc3cccc(C(=O)O)c3OB2O)c1 [Example 58, (R)-3-(2-(4-amino-1H-pyrazol-1-yl)acetamido)-2-hydroxy-3,4-dihydro-2H-benzo[e][1,2]oxaborinine-8-carboxylic acid]	< 0.1	B (B represents an MIC between 1 and 16 μg/mL inclusive)	0.1 to 1	< 0.1	B (B represents an MIC between 1 and 16 μg/mL inclusive)	B (B represents an MIC between 1 and 16 μg/mL inclusive)	C (C represents an MIC of <1 μg/mL)	B (B represents an MIC between 1 and 16 μg/mL inclusive)	0.1 to 1	< 0.1	C (C represents an MIC of <1 μg/mL)
